The values below come from patent US20250304551A1 (SHANGHAI APEIRON THERAPEUTICS COMPANY LIMITED, priority 2022, published 2025).

In experiment [1] the target is T1, Human KIF18A (amino acid sequence 1-417) (Homo sapiens, UniProt Q8NI77).
T1 construct: purchased Viva Biotech (Shanghai) Ltd
Nature of the experiment: Enzyme activity detection experiment (ADP-Glo, KIF18A with tubulin and ATP). Format: biochemical. The conditions noted are these: tubulin 60 μg/mL, ATP 25 μM, KIF18A protein 2.5 nM, 120 minutes at ambient temperature, ADP-Glo chemiluminescence. The protocol: Materials: Human KIF18A (amino acid sequence 1-417) was obtained from Viva Biotech (Shanghai) Ltd., and the ADP-Glo™ protein kinase kit was acquired from Promega, USA. Tubulin was sourced from Cytoskeleton, USA, while a 384-well assay plate and the Envision multifunctional microplate reader were obtained from PerkinElmer, USA.
Enzyme activity detection: The compound powder in DMSO was firstly dissolved to prepare a 10 mM stock solution. Next, gradient dilutions were prepared in the microplate to achieve final concentrations of […]. Sequentially, 2.5 μL of tubulin (60 μg/mL), the compound, ATP (25 μM), and KIF18A protein (2.5 nM) were added to each well, and the reaction was incubated at ambient temperature for 120 minutes. After the reaction, 10 μL of ADP-Glo™ reagent was added to each well and incubated at ambient temperature for 30 minutes. Subsequently, 20 μL of detection reagent was added to each well and incubated for an additional 30 minutes in the dark. Finally, chemiluminescence detection was performed using the PerkinElmer Envision multifunctional microplate reader.
(In general: In ADP-Glo the light output rises with the ADP produced.)

For a further experiment, the system named is OVCAR3 cells. Nature of the experiment: Cell proliferation activity test, OVCAR3 (CyQUANT Direct). Format: cell-based. The following applies: Homo sapiens, OVCAR-3, 72 h, 3 days incubation, CyQUANT fluorescence detection, read-out: OVCAR-3 Cell Viability_IC50_nM. The protocol: Materials and Cells: OVCAR3 cells were purchased from Nanjing Cobioer Biosciences Co., Ltd. RPMI-1640 medium, fetal bovine serum, and the CyQUANT Direct Cell Proliferation Assay kit were purchased from Thermo Fisher Scientific, USA; 96-well cell culture plates were sourced from Corning, USA.
Cell Culture: Culture OVCAR3 cells with RPMI-1640 medium containing […] and incubate them in a […] incubator at 37° C. Only cells in the logarithmic growth phase can be used for the test.
Inoculate OVCAR3 cells into a 96-well cell culture plate at 90 μL per well and incubate overnight in a […] incubator at 37° C. Dissolve the compound powder in DMSO to prepare a stock solution of 10 mM. Then perform gradient dilution for the compounds in the microplate to achieve a final concentration of 0-10 μM. Add 10 μL of cell culture medium containing compounds to each well to make the final DMSO content 0.20%. Incubate the cell plates in a […] incubator at 37° C. for 3 days. Add 100 μL of CyQUANT detection reagent to each well, react at 37° C. for 60 min, and perform fluorescence detection using the PerkinElmer Envision.

Another experiment concerns HT29 cells. Description: CyQuant cell proliferation activity test, HT29. The following applies: Homo sapiens, HT-29, 72 h, HT29 2000 cells per well, 3 days incubation, initial concentration 3000 nM, IC50 by XLFIT, read-out: HT-29 Cell Viability_IC50_nM. Format: cell-based. The protocol: Materials and Cells: HT29 cells were purchased from Nanjing Cobioer Biosciences Co., Ltd.; RPM-1640 medium, fetal bovine serum, Trypsin-EDTA (0.25%), DMSO, 96-well plates, and CyQuant reagents were purchased from ThermoFisher (USA).
Cell Culture: Culture HT29 cells with RPMI-1640 containing 10% fetal bovine serum under the condition of 37° C. and 5% CO2. Only cells in the logarithmic growth phase can be used for the test.
Cell Proliferation Activity Test: Use the CyQuant reagent to detect the proliferation inhibitory activity of compounds on HT29 cells. Adjust the cell density and inoculate 100 μL per well into the 96-well plate (HT29 at 2000 cells per well), then incubate overnight under the condition of 37° C. and […]. Add compounds of various target concentrations (initial concentration of 3000 nM, 3-fold dilution, 9 concentration gradients), and make the DMSO content 0.20%. Incubate the cell plates at 37° C. and 5% CO2 for 3 days. Incubate with CyQuant reagent for 1 h, read the plate by Envision, and calculate IC50 using XLFIT.

T1 sequence (Q8NI77 1-417): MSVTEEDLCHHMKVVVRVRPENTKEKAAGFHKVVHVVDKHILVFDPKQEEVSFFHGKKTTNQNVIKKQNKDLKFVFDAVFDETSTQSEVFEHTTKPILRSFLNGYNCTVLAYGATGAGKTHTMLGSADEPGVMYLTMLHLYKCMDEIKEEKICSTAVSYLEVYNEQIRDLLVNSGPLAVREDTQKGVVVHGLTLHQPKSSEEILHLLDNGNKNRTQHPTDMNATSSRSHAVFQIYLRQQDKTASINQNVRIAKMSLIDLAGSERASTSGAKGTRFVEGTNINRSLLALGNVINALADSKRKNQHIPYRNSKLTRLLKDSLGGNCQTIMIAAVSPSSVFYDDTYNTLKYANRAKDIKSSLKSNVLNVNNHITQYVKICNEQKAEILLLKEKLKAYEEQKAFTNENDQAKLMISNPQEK
T1 sequence (Q2XVP4 whole entry partner): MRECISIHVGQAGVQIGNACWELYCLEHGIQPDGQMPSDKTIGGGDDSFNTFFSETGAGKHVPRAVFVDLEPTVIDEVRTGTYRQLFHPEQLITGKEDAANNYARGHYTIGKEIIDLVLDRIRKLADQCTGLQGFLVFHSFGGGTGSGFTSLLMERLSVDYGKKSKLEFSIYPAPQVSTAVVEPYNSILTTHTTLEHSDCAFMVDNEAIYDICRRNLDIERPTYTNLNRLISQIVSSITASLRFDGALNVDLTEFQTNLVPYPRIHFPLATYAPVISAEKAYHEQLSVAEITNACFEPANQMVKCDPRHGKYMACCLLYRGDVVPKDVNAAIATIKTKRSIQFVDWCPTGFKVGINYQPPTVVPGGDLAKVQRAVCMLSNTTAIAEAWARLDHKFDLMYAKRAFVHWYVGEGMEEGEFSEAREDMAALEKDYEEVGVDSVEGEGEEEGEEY
T1 sequence (P02554 whole entry partner): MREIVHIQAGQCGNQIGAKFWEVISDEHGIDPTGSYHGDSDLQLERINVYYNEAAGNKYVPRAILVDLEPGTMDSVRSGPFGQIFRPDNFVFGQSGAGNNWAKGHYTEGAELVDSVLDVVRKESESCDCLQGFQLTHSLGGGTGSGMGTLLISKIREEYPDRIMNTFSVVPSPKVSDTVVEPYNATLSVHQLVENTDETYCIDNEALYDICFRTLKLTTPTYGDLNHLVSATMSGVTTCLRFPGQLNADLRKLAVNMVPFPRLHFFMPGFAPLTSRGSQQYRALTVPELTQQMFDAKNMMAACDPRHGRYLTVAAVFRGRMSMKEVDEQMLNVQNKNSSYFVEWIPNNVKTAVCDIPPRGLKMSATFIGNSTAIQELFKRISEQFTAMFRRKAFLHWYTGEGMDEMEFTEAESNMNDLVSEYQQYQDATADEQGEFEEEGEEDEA

Consider `COc1cc(-c2nnc(-c3ccc(NS(=O)(=O)CCO)cc3N3CCC4(CC3)CC4)o2)nc(N2CCC(F)(F)CC2)n1` [Example 20, N-(4-(5-(2-(4,4-difluoropiperidin-1-yl)-6-methoxypyrimidin-4-yl)-1,3,4-oxadiazol-2-yl)-3-(6-azaspiro[2.5]octan-6-yl)phenyl)-2-hydroxyethane-1-sulfonamide], for which the IC50 in experiment [1] was found to be 61 nM; with OVCAR3 cells it was 139 nM; with HT29 cells, 55 nM.
The corresponding values for `Cc1cc(-c2cn(-c3ccc(NS(=O)(=O)CCO)nc3N3CCC4(CC3)CC4)nn2)nc(N2CCC(F)(F)CC2)n1` [Example 66, N-(6-{6-azaspiro[2.5]octan-6-yl}-5-{4-[2-(4,4-difluoropiperidin-1-yl)-6-methylpyrimidin-4-yl]-1H-1,2,3-triazol-1-yl}pyridin-2-yl)-2-hydroxyethane-1-sulfonamide] are 62 nM, 52.7 nM and 54 nM.
The like results for `O=S(=O)(CCO)Nc1ccc(-n2cc(-c3cc(NCc4cccnc4)nc(N4CCC(F)(F)CC4)n3)nn2)c(N2CCC3(CC2)CC3)c1` [Example 60, N-(3-{6-azaspiro[2.5]octan-6-yl}-4-{4-[2-(4,4-difluoropiperidin-1-yl)-6-{[(pyridine-3-yl)methyl]amino}pyrimidin-4-yl]-1H-1,2,3-triazol-1-yl}phenyl)-2-hydroxyethane-1-sulfonamide] were, in that order, 433 nM, 29 nM and 41 nM.
As to `CNc1cc(-c2cn(-c3ccc(NS(=O)(=O)CCO)cc3N3CCC4(CC3)CC4)nn2)nc(N2CCC(F)(F)CC2)n1` [Example 56, N-(3-{6-azaspiro[2.5]octan-6-yl}-4-{4-[2-(4,4-difluoropiperidin-1-yl)-6-(methylamino)pyrimidin-4-yl]-1H-1,2,3-triazol-1-yl}phenyl)-2-hydroxyethane-1-sulfonamide], the IC50 stood at 110 nM in experiment [1], 9 nM with OVCAR3 cells and 8 nM in the experiment on HT29 cells.
The corresponding values for `Cc1cc(-c2cn(-c3ccc(NS(=O)(=O)CCO)cc3N3CCC4(CC3)CC4)nn2)cc(N2CCC(F)(F)CC2)c1[N+](=O)[O-]` [Example 78, N-(3-{6-azaspiro[2.5]octan-6-yl}-4-{4-[3-(4,4-difluoropiperidin-1-yl)-5-methyl-4-nitrophenyl]-1H-1,2,3-triazol-1-yl}phenyl)-2-hydroxyethane-1-sulfonamide] are more than 3000 nM, more than 3000 nM and more than 3000 nM.
Take `Nc1ccc2cc(-c3cn(-c4ccc(NS(=O)(=O)CCO)cc4N4CCC5(CC4)CC5)nn3)c(F)c(N3CCC(F)(F)CC3)c2n1` [Example 80, N-(4-{4-[2-amino-8-(4,4-difluoropiperidin-1-yl)-7-fluoroquinolin-6-yl]-1H-1,2,3-triazol-1-yl}-3-{6-azaspiro[2.5]octan-6-yl}phenyl)-2-hydroxyethane-1-sulfonamide]: the IC50 was found to be 475 nM in experiment [1], 21 nM in the experiment with OVCAR3 cells and 26 nM in the experiment with HT29 cells.
In the case of `Cc1cc(-c2cn(-c3ccc(NS(=O)(=O)[C@H](C)CO)cc3N3CCC4(CC3)CC4)nn2)nc(N2CCC(F)(F)CC2)n1` [Example 83, (2R)—N-(3-{6-azaspiro[2.5]octan-6-yl}-4-{4-[2-(4,4-difluoropiperidin-1-yl)-6-methylpyrimidin-4-yl]-1H-1,2,3-triazol-1-yl}phenyl)-1-hydroxypropane-2-sulfonamide], the IC50 in experiment [1] stood at 117 nM; in the experiment with OVCAR3 cells it was 13 nM; in the experiment on HT29 cells, 16 nM.
Consider `CC(C)(O)c1ccc(-c2cn(-c3ccc(NS(=O)(=O)CCO)cc3N3CCC4(CC3)CC4)nn2)nc1N1CCC(F)(F)CC1` [Example 70, N-(4-(4-(6-(4,4-difluoropiperidin-1-yl)-5-(2-hydroxypropan-2-yl)pyridin-2-yl)-1H-1,2,3-triazol-1-yl)-3-(6-azaspiro[2.5]octan-6-yl)phenyl)-2-hydroxyethanesulfonamide], for which the IC50 is 1230 nM in experiment [1], 582 nM in the experiment on OVCAR3 cells and 700 nM with HT29 cells.
The like results for `Cc1cc(-n2cc(-c3ccc(NS(=O)(=O)[C@H](C)CO)cc3N3CCC4(CC3)CC4)nn2)nc(N2CCC(F)(F)CC2)n1` [Example 92, (2R)—N-(3-{6-azaspiro[2.5]octan-6-yl}-4-{1-[2-(4,4-difluoropiperidin-1-yl)-6-methylpyrimidin-4-yl]-1H-1,2,3-triazol-4-yl}phenyl)-1-hydroxypropane-2-sulfonamide] were, in that order, 232 nM, 93 nM and 50 nM.
The like results for `Cc1cc(-c2nnc(-c3ccc(NS(=O)(=O)CCO)cc3N3CCC4(CC3)CC4)o2)nc(N2CCCC(O)C2)n1` (stereo not drawn) [Example 17, 2-hydroxy-N-(4-(5-(2-(3-hydroxypiperidin-1-yl)-6-methylpyrimidin-4-yl)-1,3,4-oxadiazol-2-yl)-3-(6-azaspiro[2.5]octan-6-yl)phenyl)ethane-1-sulfonamide] were, in that order, 46 nM, 74 nM and 337 nM.
Take `Cn1cc(-c2ccc(-c3nnc(-c4ccc(NS(=O)(=O)CCO)cc4N4CCC5(CC4)CC5)o3)nc2N2CCC(F)(F)CC2)cn1` [Example 31, N-(4-(5-(6-(4,4-difluoropiperidin-1-yl)-5-(1-methyl-1H-pyrazol-4-yl)pyridin-2-yl)-1,3,4-oxadiazol-2-yl)-3-(6-azaspiro[2.5]octan-6-yl)phenyl)-2-hydroxyethane-1-sulfonamide]: the values for the IC50 (in experiment [1]; with OVCAR3 cells; in the experiment on HT29 cells) were 161 nM, 16 nM and 11 nM, respectively.
Take `Cc1cc(-c2cn(-c3ccc(NS(=O)(=O)CCO)cc3N3CCC4(CC3)CC4)nn2)nc(N2C3CCC2COC3)n1` [Example 48, N-(4-(4-(2-(3-oxa-8-azabicyclo[3.2.1]octan-8-yl)-6-methylpyrimidin-4-yl)-1H-1,2,3-triazol-1-yl)-3-(6-azaspiro[2.5]octan-6-yl)phenyl)-2-hydroxyethane-1-sulfonamide]: the IC50 stood at 22 nM in experiment [1], 17 nM in the experiment on OVCAR3 cells and 14 nM with HT29 cells.
As for `O=S(=O)(CCO)Nc1ccc(-n2cc(-c3cc(O)nc(N4CCC(F)(F)CC4)n3)nn2)c(N2CCC3(CC2)CC3)c1` [Example 52, N-(4-(4-(2-(4,4-difluoropiperidin-1-yl)-6-hydroxypyrimidin-4-yl)-1H-1,2,3-triazol-1-yl)-3-(6-azaspiro[2.5]octan-6-yl)phenyl)-2-hydroxyethane-1-sulfonamide], the IC50 is 25 nM in experiment [1], 110 nM in the experiment on OVCAR3 cells and 299 nM in the experiment with HT29 cells.
Turning to `Cc1cc(-c2cn(-c3ccc(NS(=O)(=O)CCO)cc3N3CCC(=C(F)F)CC3)nn2)nc(N2CCC(F)(F)CC2)n1` [Example 88, N-{3-[4-(difluoromethylidene)piperidin-1-yl]-4-{4-[2-(4,4-difluoropiperidin-1-yl)-6-methylpyrimidin-4-yl]-1H-1,2,3-triazol-1-yl}phenyl}-2-hydroxyethane-1-sulfonamide], the IC50 in experiment [1] worked out at 118 nM; in the experiment with OVCAR3 cells, 29 nM; in the experiment on HT29 cells, 52 nM.
Regarding `O=S(=O)(CCO)Nc1ccc(-c2nnc(-c3cc4cccnc4c(N4CCC(F)(F)CC4)c3F)o2)c(N2CCC3(CC2)CC3)c1` [Example 30, N-(4-(5-(8-(4,4-difluoropiperidin-1-yl)-7-fluoroquinolin-6-yl)-1,3,4-oxadiazol-2-yl)-3-(6-azaspiro[2.5]octan-6-yl)phenyl)-2-hydroxyethane-1-sulfonamide], the figures for the IC50 (in experiment [1]; with OVCAR3 cells; in the experiment with HT29 cells) were 255 nM, 55 nM and 61 nM, respectively.
